Experimental data reported in PubChem BioAssay AID1963863 (Molecular Pharmacology Branch, DTP, NCI, 2024).

Test system: 931267-113-T-J1-PDC KRAS spheroid with HUVEC/MSC, viability
Test: Anticancer human tumor 931267-113-T-J1-PDC patient-derived colon adenocarcinoma cell line growth inhibition [KRAS2]
Details: for IC50: curve of first compound; for viability, T/C: stronger effect = lower value
Method in brief: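 KRAS-mutant tumor cells were grown as spheroids with HUVEC endothelial cells and human MSCs as stroma. Targeted agents were tested alone and with KRAS pathway inhibitors. Doses started at or near clinical Cmax, or 10 microM, descending half-log.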

[1] = second compound 0.0316 µM, first compound 0.0316 µM
[2] = second compound 0.0316 µM, first compound 0.1 µM
[3] = second compound 0.0316 µM, first compound 0.316 µM
[4] = second compound 0.0316 µM, first compound 1 µM
[5] = second compound 0.0316 µM, first compound 3.16 µM
[6] = second compound 0.0316 µM, first compound 10 µM
[7] = second compound 0.1 µM, first compound 0.0316 µM
[8] = second compound 0.1 µM, first compound 0.1 µM
[9] = second compound 0.1 µM, first compound 0.316 µM
[10] = second compound 0.1 µM, first compound 1 µM
[11] = second compound 0.1 µM, first compound 3.16 µM
[12] = second compound 0.1 µM, first compound 10 µM
[13] = second compound 0.316 µM, first compound 0.0316 µM
[14] = second compound 0.316 µM, first compound 0.1 µM
[15] = second compound 0.316 µM, first compound 0.316 µM
[16] = second compound 0.316 µM, first compound 1 µM
[17] = second compound 0.316 µM, first compound 3.16 µM
[18] = second compound 0.316 µM, first compound 10 µM
[19] = second compound 1 µM, first compound 0.0316 µM
[20] = second compound 1 µM, first compound 0.1 µM
[21] = second compound 1 µM, first compound 0.316 µM
[22] = second compound 1 µM, first compound 1 µM
[23] = second compound 1 µM, first compound 3.16 µM
[24] = second compound 1 µM, first compound 10 µM
[25] = second compound 3.16 µM, first compound 0.0316 µM
[26] = second compound 3.16 µM, first compound 0.1 µM
[27] = second compound 3.16 µM, first compound 0.316 µM
[28] = second compound 3.16 µM, first compound 1 µM
[29] = second compound 3.16 µM, first compound 3.16 µM
[30] = second compound 3.16 µM, first compound 10 µM
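Also: compound exposure lasted 7 days before the readout.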
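For viability, T/C in this document: 100% = DMSO vehicle control viability.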

## COc1cc(Nc2ncc3c(n2)-c2ccc(Cl)cc2C(c2c(F)cccc2OC)=NC3)ccc1C(=O)O + C=CC(=O)N1CCN(c2nc(OCC3CCCN3C)nc3c2CCN(c2cccc4cccc(C)c24)C3)CC1CC#N
Second compound 0.0316 µM
  IC50: > 10 µM
Second compound 0.1 µM
  IC50: > 10 µM
Second compound 0.316 µM
  IC50: > 10 µM
Second compound 1 µM
  IC50: 5.04 µM
Second compound 3.16 µM
  IC50: < 0.0316 µM
[1]
  viability, T/C: 87.9%
[2]
  viability, T/C: 89.5%
[3]
  viability, T/C: 93.8%
[4]
  viability, T/C: 75.6%
[5]
  viability, T/C: 95.8%
[6]
  viability, T/C: 68.1%
[7]
  viability, T/C: 106%
[8]
  viability, T/C: 89.7%
[9]
  viability, T/C: 85.6%
[10]
  viability, T/C: 88%
[11]
  viability, T/C: 68.6%
[12]
  viability, T/C: 58.3%
[13]
  viability, T/C: 93.5%
[14]
  viability, T/C: 91.8%
[15]
  viability, T/C: 91.7%
[16]
  viability, T/C: 55.6%
[17]
  viability, T/C: 70%
[18]
  viability, T/C: 63%
[19]
  viability, T/C: 92.6%
[20]
  viability, T/C: 60.3%
[21]
  viability, T/C: 66.4%
[22]
  viability, T/C: 64.1%
[23]
  viability, T/C: 66%
[24]
  viability, T/C: 31.8%
[25]
  viability, T/C: 0.22%
[26]
  viability, T/C: 0.29%
[27]
  viability, T/C: 0.25%
[28]
  viability, T/C: 0.3%
[29]
  viability, T/C: 0.17%
[30]
  viability, T/C: 0.23%

## COc1cc2nccc(Oc3ccc(NC(=O)C4(C(=O)Nc5ccc(F)cc5)CC4)cc3)c2cc1OC + C=CC(=O)N1CCN(c2nc(OCC3CCCN3C)nc3c2CCN(c2cccc4cccc(C)c24)C3)CC1CC#N
Second compound 0.0316 µM
  IC50: > 10 µM
Second compound 0.1 µM
  IC50: > 10 µM
Second compound 0.316 µM
  IC50: > 10 µM
Second compound 1 µM
  IC50: 2.47 µM
Second compound 3.16 µM
  IC50: < 0.0316 µM
[1]
  viability, T/C: 107%
[2]
  viability, T/C: 98.3%
[3]
  viability, T/C: 95.2%
[4]
  viability, T/C: 98.7%
[5]
  viability, T/C: 64.7%
[6]
  viability, T/C: 59.5%
[7]
  viability, T/C: 107%
[8]
  viability, T/C: 97.9%
[9]
  viability, T/C: 106%
[10]
  viability, T/C: 104%
[11]
  viability, T/C: 66.6%
[12]
  viability, T/C: 50.9%
[13]
  viability, T/C: 108%
[14]
  viability, T/C: 119%
[15]
  viability, T/C: 108%
[16]
  viability, T/C: 110%
[17]
  viability, T/C: 71.9%
[18]
  viability, T/C: 51.8%
[19]
  viability, T/C: 92.3%
[20]
  viability, T/C: 101%
[21]
  viability, T/C: 92.8%
[22]
  viability, T/C: 104%
[23]
  viability, T/C: 37%
[24]
  viability, T/C: 15.6%
[25]
  viability, T/C: 16.2%
[26]
  viability, T/C: 13.8%
[27]
  viability, T/C: 0.57%
[28]
  viability, T/C: 0.23%
[29]
  viability, T/C: 2.35%
[30]
  viability, T/C: 0.23%
